Assay results as given in US5744298A, “DNA sequences which encode immunoreactive HCMV-specific peptides” (Behringwerke Aktiengesellschaft, priority 1991, dated 1998).
Where no end group is shown, it is not given here.

What was measured:
CMV IgG-positive sera = experiment: ELISA of peptide-coated microtiter plates with CMV IgG-positive human sera (localization of epitopes); type: binding; details: plate coated with 2.5 μg peptide per ml, serum dilution 1:2; for Reactivity (individual reactivities of particularly reactive peptides with the assayed group of CMV IgG-positive sera, in percent): Table 3
Description: A microtiter plate with 96 wells was coated with a synthesized peptide. To do this, a solution of 2.5 μg of peptide per ml of carbonate buffer was made up and introduced in 100 μl portions into the wells for the coating. The peptides were adsorbed onto the surfaces at 4° C. overnight and, after removal of the peptide solution, the wells were washed several times with washing buffer (50 mM Tris, pH 7.2, 10 mM EDTA, 0.2% Tween 20). Then individual human serum samples in a 1:2 dilution were introduced and incubated at 37° C. for 1 hour. After another washing step, the conjugate antibody specific for human IgG antibodies or human IgM antibodies and labeled with peroxidase was added and the mixture was incubated at room temperature for 0.5 hour. The reaction was subsequently stopped by adding 0.5M sulfuric acid and extinction of the individual samples was measured at a wavelength of 450/650 nm in a photometer.
To test the immunogenicity, peptides of various length from the complete amino-acid sequence region from 718 to 880 of the HCMV protein pp150 (Tab. 2 and 3) were synthesized as described in Example 1. Subsequently, as in Example 2, the microtiter plates were coated with the synthesized peptides, and the immunological reactivity was assayed. […] The three immunologically reactive peptides have the following sequences: […]

[1] = tested on: monoclonal antibody 87-55/02; experiment: Reaction of the monoclonal antibody 87-55/02 with peptide epitopes (ELISA, immunoblot); type: binding; details: measured as immunoblot and ELISA reactivity
Excerpt: It was concluded from the method for selecting the monoclonal antibody that the identified epitope must have a very important structure which is not even destroyed by denaturation of the complete protein. This monoclonal antibody correspondingly reacts both with the synthesized peptide 2.7 (SEQ ID NO:26) and with the recombinant protein XP1 (SEQ ID NO:33) and the pp150 protein of HCMV.

Row | Molecule | Reactivity (individual reactivities of particularly reactive peptides with the assayed group of CMV IgG-positive sera, in percent) (CMV IgG-positive sera) | Reactivity (individual reactivities of the synthetic pXP1 segments with the assayed group of CMV IgG-positive sera, in percent) (CMV IgG-positive sera; Table 2) | immunological reaction of monoclonal antibody 87-55/02 with protein [1]
1 | ala tyr lys phe glu gln pro thr leu thr phe gly ala gly val asn val pro ala gly ala gly ala ala ile leu thr pro thr pro val asn pro ser thr ala pro ala pro ala pro (AYKFGQPTLTFGAGVNVPAGAGAAILTPTPVNPSTAPAPAP) [Peptide 1.13] | 90% |  | 
2 | phe glu gln pro thr leu thr phe gly ala gly val asn val pro ala gly ala gly ala ala ile leu thr pro thr pro val asn pro ser thr ala pro ala pro ala (FEQPTTLTFGAGVNVPAGAGAAILTPTPVNPSTAPAPA) [Peptide 1.4] | 90% |  | 
3 | pro thr leu thr phe gly ala gly val asn val pro ala gly ala gly ala ala ile leu thr pro thr pro val asn pro ser thr ala pro ala pro ala pro NH2 (PTLTFGAGVNVPAGAGAAILTPTPVNPSTAPAPAP-NH2) [Peptide 1.6] | 90% | 90% | 
4 | HCMV protein pp150: HCMV protein pp150 (protein, UniProt P08318 1-1048, looked up) Large structural …: MSLQFIGLQRRDVVALVNFLRHLTQKPDVDLEAHPKILKKCGEKRLHRRTVLFNELMLWLGYYRELRFHNPDLSSVLEEFEVRCVAVARRGYTYPFGDRGKARDHLAVLDRTEFDTDVRHDAEIVERALVSAVILAKMSVRETLVTAIGQTEPIAFVHLKDTEVQRIEENLEGVRRNMFCVKPLDLNLDRHANTALVNAVNKLVYTGRLIMNVRRSWEELERKCLARIQERCKLLVKELRMCLSFDSNYCRNILKHAVENGDSADTLLELLIEDFDIYVDSFPQSAHTFLGARSPSLEFDDDANLLSLGGGSAFSSVPKKHVPTQPLDGWSWIASPWKGHKPFRFEAHGSLAPAAEAHAARSAAVGYYDEEEKRRERQKRVDDEVVQREKQQLKAWEERQQNLQQRQQQPPPPARKPSASRRLFGSSADEDDDDDDDEKNIFTPIKKPGTSGKGAASGGGVSSIFSGLLSSGSQKPTSGPLNIPQQQQRHAAFSLVSPQVTKASPGRVRRDSAWDVRPLTETRGDLFSGDEDSDSSDGYPPNRQDPRFTDTLVDITDTETSAKPPVTTAYKFEQPTLTFGAGVNVPAGAGAAILTPTPVNPSTAPAPAPTPTFAGTQTPVNGNSPWAPTAPLPGDMNPANWPRERAWALKNPHLAYNPFRMPTTSTASQNTVSTTPRRPSTPRAAVTQTASRDAADEVWALRDQTAESPVEDSEEEDDDSSDTGSVVSLGHTTPSSDYNNDVISPPSQTPEQSTPSRIRKAKLSSPMTTTSTSQKPVLGKRVATPHASARAQTVTSTPVQGRLEKQVSGTPSTVPATLLQPQPASSKTTSSRNVTSGAGTSSASSARQPSASASVLSPTEDDVVSPATSPLSMLSSASPSPAKSAPPSPVKGRGSRVGVPSLKPTLGGKAVVGRPPSVPVSGSAPGRLSGSSRAASTTPTYPAVTTVYPPSSTAKSSVSNAPPVASPSILKPGASAALQSRRSTGTAAVGSPVKSTTGMKTVAFDLSSPQKSGTGPQPGSAGMGGAKTPSDAVQNILQKIEKIKNTEE |  |  | unambiguous immunological reaction
5 | recombinant protein XP1: recombinant protein section, amino acid 718-880 of HCMV protein pp150 (protein) DPRFTDTLVDITDTETSAKPPVTTAYKFEQPTLTFGAGVNVPAGAGAAILTPTPVNPSTAPAPAPTPTFAGTQTPVNGNSPWAPTAPLPGDMNPANWPRERAWALKNPHLAYNPFRMPTTSTASQNTVSTTPRRPSTPRAAVTQTASRDAADEVWALRDQTA |  |  | reacts
